In one test the target is T1, Cyclooxygenase (CO) (Homo sapiens, UniProt P23219).
T1 construct: The leukocytes were homogenised and 5 μM arachidonic acid added; endogenous in cells; host or cells: homogenate of leukocytes from blood of normal aspirin-free volunteers
Kind of test: In vitro inhibition of Cyclooxygenase (CO); leukocyte homogenate with arachidonic acid, radioimmunoassay for thromboxane. The settings on record: homogenised leukocytes from aspirin-free volunteers, 5 μM arachidonic acid, 37°, 5 minutes; thomboxane B4 (CO product). Type of test: biochemical. The protocol:
(§1) In vitro inhibition of 5-lipoxygenase (LO) and Cyclooxygenase (CO)
(§2) Blood from normal aspirin-free volunteers was centrifuged to separate leukocytes from red cells and platelets. The leukocytes were homogenised and 5 μM arachidonic acid added, followed by incubation at 37° for 5 minutes. The reaction was stopped by boiling. Radioimmunassay was conducted for leukotriene B4 (an LO product) and thomboxane B4 (a CO product). Results were calculated as IC50 μM activity against each enzyme and as listed below.

Another test has as its target T2, 5-lipoxygenase (LO) (Homo sapiens, UniProt P09917).
T2 construct: The leukocytes were homogenised and 5 μM arachidonic acid added; endogenous in cells; host or cells: homogenate of leukocytes from blood of normal aspirin-free volunteers
T2 sequence (P09917 1-674): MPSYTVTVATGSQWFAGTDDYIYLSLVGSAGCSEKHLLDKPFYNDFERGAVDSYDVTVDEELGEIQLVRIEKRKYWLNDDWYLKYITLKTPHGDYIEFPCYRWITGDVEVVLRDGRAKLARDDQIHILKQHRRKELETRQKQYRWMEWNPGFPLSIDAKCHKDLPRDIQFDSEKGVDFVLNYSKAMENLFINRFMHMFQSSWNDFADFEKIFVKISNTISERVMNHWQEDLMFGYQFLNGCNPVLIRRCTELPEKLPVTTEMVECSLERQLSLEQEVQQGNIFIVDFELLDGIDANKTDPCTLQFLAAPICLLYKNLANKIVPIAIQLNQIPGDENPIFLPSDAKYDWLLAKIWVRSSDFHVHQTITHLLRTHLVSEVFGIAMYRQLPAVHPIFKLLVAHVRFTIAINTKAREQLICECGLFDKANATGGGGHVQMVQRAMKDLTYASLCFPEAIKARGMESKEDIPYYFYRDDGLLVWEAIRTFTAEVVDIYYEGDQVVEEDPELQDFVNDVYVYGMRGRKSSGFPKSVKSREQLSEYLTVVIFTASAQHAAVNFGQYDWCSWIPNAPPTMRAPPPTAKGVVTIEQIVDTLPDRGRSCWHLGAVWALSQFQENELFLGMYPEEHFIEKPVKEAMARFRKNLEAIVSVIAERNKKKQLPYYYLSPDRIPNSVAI
In words: In vitro inhibition of 5-lipoxygenase (LO); leukocyte homogenate with arachidonic acid, radioimmunoassay for leukotriene B4. Type of test: biochemical. Particulars: homogenised leukocytes from aspirin-free volunteers, 5 μM arachidonic acid, 37°, 5 minutes; leukotriene B4 (LO product). The protocol: as §1, §2

We go through one compound from US5036157A, “Aryl derivatives” (Burroughs Wellcome Co., priority 1987, dated 1991).

Bounds are passed on as bounds.

T1 sequence (P23219 24-599): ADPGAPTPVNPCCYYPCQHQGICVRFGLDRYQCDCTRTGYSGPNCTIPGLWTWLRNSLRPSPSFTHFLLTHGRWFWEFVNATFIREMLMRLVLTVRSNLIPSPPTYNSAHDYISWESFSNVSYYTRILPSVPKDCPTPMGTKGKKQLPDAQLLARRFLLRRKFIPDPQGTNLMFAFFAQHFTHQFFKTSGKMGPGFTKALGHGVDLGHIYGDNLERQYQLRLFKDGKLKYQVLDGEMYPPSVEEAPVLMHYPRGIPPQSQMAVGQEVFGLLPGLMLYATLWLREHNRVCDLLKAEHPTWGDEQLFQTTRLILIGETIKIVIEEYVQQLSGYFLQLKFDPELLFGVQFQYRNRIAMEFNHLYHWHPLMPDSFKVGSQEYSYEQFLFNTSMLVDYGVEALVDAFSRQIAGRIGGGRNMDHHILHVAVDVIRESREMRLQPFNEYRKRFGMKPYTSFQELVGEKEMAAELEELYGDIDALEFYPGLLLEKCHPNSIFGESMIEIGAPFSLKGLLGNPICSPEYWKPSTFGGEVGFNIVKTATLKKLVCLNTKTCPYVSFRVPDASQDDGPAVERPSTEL

Turning to `CN(O)C(=O)C=Cc1cccc(Oc2ccccc2)c1` [Example 1, 3-Phenoxy-N-methylcinnamohydroxamic Acid], the IC50 at Cyclooxygenase (CO) was 3 µM; on 5-lipoxygenase (LO) it was below 0.1 µM.

In general, IC50 refers to the concentration that gives 50% inhibition.
